In the supplement of paper PMC10307832:

Tests used:
Assay in all cases: relative viability (nuclei count vs DMSO), 5 days (fraction); higher = more cells survive
Zosuquidar + Crizotinib = compound: O[C@@H](COc1cccc2ncccc12)CN1CCN([C@@H]2c3ccccc3[C@@H]3[C@H](c4ccccc42)C3(F)F)CC1 [Zosuquidar] + C[C@@H](Oc1cc(-c2cnn(C3CCNCC3)c2)cnc1N)c1c(Cl)ccc(F)c1Cl [Crizotinib] (partner 1 µM)
In short: (§1)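 Dosing by pin tool came one day after lung cancer cell lines were seeded in 1536-well plates, using either one drug or a fixed anchor-drug dose plus five library-drug doses (not always all listed) in √10 steps. After 5 days, nuclei were counted on 4× images. Relative viability is treated-well nuclei count divided by vehicle-well nuclei count, and values are medians of duplicate plates.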

[1] = compound: COc1cc2nccc(Oc3ccc(NC(=O)C4(C(=O)Nc5ccc(F)cc5)CC4)cc3)c2cc1OC [Cabozantinib] + C[C@@H](Oc1cc(-c2cnn(C3CCNCC3)c2)cnc1N)c1c(Cl)ccc(F)c1Cl [Crizotinib] (partner 1 µM)
In short: as §1

Zosuquidar + Pemetrexed = compound: O[C@@H](COc1cccc2ncccc12)CN1CCN([C@@H]2c3ccccc3[C@@H]3[C@H](c4ccccc42)C3(F)F)CC1 [Zosuquidar] + Nc1nc2[nH]cc(CCc3ccc(C(=O)N[C@@H](CCC(=O)O)C(=O)O)cc3)c2c(=O)[nH]1 [Pemetrexed] (partner 0.2 µM)
In short: as §1

Zosuquidar + Luminespib = compound: O[C@@H](COc1cccc2ncccc12)CN1CCN([C@@H]2c3ccccc3[C@@H]3[C@H](c4ccccc42)C3(F)F)CC1 [Zosuquidar] + CCNC(=O)c1noc(-c2cc(C(C)C)c(O)cc2O)c1-c1ccc(CN2CCOCC2)cc1 [Luminespib] (partner 0.01 µM)
In short: as §1

| Cell Line | relative viability (Zosuquidar + Crizotinib; first compound 0.01 µM) | relative viability (Zosuquidar + Crizotinib; first compound 0.03162 µM) | relative viability (Zosuquidar + Crizotinib; first compound 0.1 µM) | relative viability (Zosuquidar + Crizotinib; first compound 0.3162 µM) | relative viability (Zosuquidar + Crizotinib; first compound 1 µM) | relative viability ([1]; first compound 0.02 µM) | relative viability ([1]; first compound 0.06325 µM) | relative viability ([1]; first compound 0.2 µM) | relative viability ([1]; first compound 0.6325 µM) | relative viability ([1]; first compound 2 µM) | relative viability (Zosuquidar + Pemetrexed; first compound 0.01 µM) | relative viability (Zosuquidar + Pemetrexed; first compound 0.03162 µM) | relative viability (Zosuquidar + Pemetrexed; first compound 0.1 µM) | relative viability (Zosuquidar + Pemetrexed; first compound 0.3162 µM) | relative viability (Zosuquidar + Pemetrexed; first compound 1 µM) | relative viability (Zosuquidar + Luminespib; first compound 0.01 µM) | relative viability (Zosuquidar + Luminespib; first compound 0.03162 µM) | relative viability (Zosuquidar + Luminespib; first compound 0.1 µM) | relative viability (Zosuquidar + Luminespib; first compound 0.3162 µM) | relative viability (Zosuquidar + Luminespib; first compound 1 µM) |
| --- | --- | --- | --- | --- | --- | --- | --- | --- | --- | --- | --- | --- | --- | --- | --- | --- | --- | --- | --- | --- |
| HCC-44 | 0.761 | 0.828 | 0.84 | 0.846 | 0.804 | 0.855 | 0.85 | 0.841 | 0.834 | 0.85 | 0.613 | 0.708 | 0.663 | 0.618 | 0.632 | 1.14 | 1.16 | 1.17 | 1.01 | 1.08 |
| HCC-78 | 0.352 | 0.321 |  | 0.362 | 0.322 | 0.326 | 0.356 | 0.288 | 0.351 | 0.318 | 0.92 |  |  | 0.906 | 0.827 |  |  |  |  |  |
| HCC-366 | 0.468 | 0.59 | 0.636 | 0.48 | 0.577 | 0.71 | 0.778 | 0.547 | 0.358 | 0.385 | 0.177 | 0.155 | 0.147 | 0.145 | 0.184 |  |  |  |  |  |
| HCC-827 | 0.931 | 0.923 | 0.937 | 0.871 | 0.872 | 0.888 | 0.942 |  | 0.939 | 0.978 | 0.237 | 0.272 | 0.255 | 0.263 | 0.279 | 0.518 | 0.576 | 0.501 | 0.704 | 0.7 |
| HOP-62 | 0.829 | 1.01 | 0.85 | 1 | 0.864 | 0.821 | 1.06 | 1.14 | 0.89 | 0.902 | 0.256 | 0.38 | 0.341 | 0.308 | 0.295 | 0.878 | 0.947 | 0.914 | 0.99 | 0.896 |
| IA-LM |  | 0.804 | 1.05 | 1.03 | 0.861 | 0.962 | 0.795 | 0.908 | 0.755 | 0.92 |  |  |  |  |  |  |  |  |  |  |
| LC-2-ad | 0.443 | 0.508 | 0.451 | 0.449 | 0.46 | 0.438 | 0.606 | 0.493 | 0.474 | 0.467 | 0.255 | 0.276 | 0.296 | 0.31 | 0.282 | 1.05 | 0.85 | 0.981 | 0.999 | 0.987 |
| LCLC-97TM1 | 0.389 | 0.327 |  | 0.429 | 0.339 |  | 0.354 | 0.49 | 0.365 | 0.306 | 0.192 | 0.191 |  | 0.158 | 0.183 | 0.765 | 0.755 | 0.742 | 0.814 | 0.913 |
| LCLC-103H | 1.07 | 1.09 | 0.991 | 0.892 | 0.989 | 1 | 1.09 | 1.09 | 1.02 | 1.04 | 0.495 | 0.489 | 0.453 | 0.46 | 0.46 | 0.983 | 0.957 | 0.74 | 0.93 | 1 |
| LK-2 | 0.237 | 0.218 | 0.28 | 0.274 | 0.224 |  | 0.225 | 0.201 | 0.179 | 0.204 | 0.281 | 0.306 | 0.205 | 0.26 | 0.271 | 0.185 | 0.184 | 0.169 | 0.172 | 0.172 |
| LOU-NH91 | 0.733 | 0.738 | 0.691 | 0.736 | 0.736 | 0.736 | 0.751 | 0.531 | 0.728 | 0.725 | 0.409 | 0.411 | 0.448 | 0.423 | 0.396 | 0.331 | 0.317 |  | 0.343 | 0.355 |
| LU99A | 0.499 | 0.671 | 0.484 | 0.607 | 0.571 | 0.585 | 0.607 | 0.592 | 0.567 | 0.527 | 0.168 | 0.175 | 0.155 | 0.165 | 0.171 | 0.201 | 0.22 | 0.256 | 0.276 | 0.303 |
| LXF-289 | 0.768 | 0.861 | 0.799 | 0.816 | 0.876 | 0.858 | 0.857 | 0.392 | 0.805 | 0.818 | 0.892 | 0.905 | 0.908 | 0.895 | 0.908 | 0.665 | 0.762 | 0.675 | 0.711 | 0.581 |
| NCI-H522 |  |  |  |  |  |  |  |  |  |  | 0.958 | 0.897 | 0.968 | 0.843 | 1.17 | 1.08 | 1.19 | 1.23 | 0.965 | 1.28 |
| NCI-H727 | 0.905 | 0.925 | 0.732 | 0.798 | 0.925 | 0.934 | 0.866 | 0.786 | 1.03 | 0.896 |  |  |  |  |  | 0.23 | 0.344 | 0.434 | 0.427 | 0.431 |
| NCI-H1299 | 0.938 | 1.01 | 1.03 | 0.982 | 0.928 | 0.977 | 0.998 | 0.648 | 0.973 | 0.993 |  |  |  |  |  |  |  |  |  |  |
| NCI-H1395 |  |  |  |  |  |  |  |  |  |  | 0.718 | 0.983 |  | 1 | 0.811 | 0.685 | 0.656 | 0.618 | 0.349 | 0.818 |
| NCI-H1623 |  |  |  |  |  |  |  |  |  |  |  |  |  |  |  | 0.371 | 0.511 | 0.539 | 0.451 | 0.476 |
| NCI-H1648 |  |  |  |  |  |  |  |  |  |  | 1.57 | 0.99 | 0.568 | 0.717 | 0.627 |  |  |  |  |  |
| NCI-H1703 | 0.785 | 1.13 | 0.682 | 0.582 | 1.01 |  | 0.296 | 0.172 | 0.249 | 0.175 |  |  |  |  |  |  |  |  |  |  |
| NCI-H1793 |  |  |  |  |  |  |  |  |  |  | 0.898 |  |  | 1.01 | 0.832 | 0.179 | 0.263 |  | 0.207 | 0.207 |
| NCI-H2342 |  |  |  |  |  |  |  |  |  |  | 0.682 | 0.785 | 0.649 | 0.899 | 0.818 | 0.753 | 0.591 | 0.605 | 0.644 | 0.845 |
| SW 900 |  |  |  |  |  |  |  |  |  |  | 0.497 | 0.485 |  | 0.514 | 0.498 | 0.172 | 0.171 | 0.181 | 0.198 | 0.172 |
